In patent US20260216138A1, “IDENTIFICATION OF OTUD7B INHIBITOR 7BI AND ITS APPLICATION IN REDUCING GROWTH OF NSCLC AND LEUKEMIA CELLS” (The University of North Carolina at Chapel Hill, priority 2023, published 2026):

Columns and labels:
OTUD7B binding to GβL = target: T1, OTUD7B binding to GβL (Homo sapiens, UniProt Q6GQQ9); experiment: OTUD7B binding to GβL; assay type: cell-based
T1 sequence (Q6GQQ9 1-843): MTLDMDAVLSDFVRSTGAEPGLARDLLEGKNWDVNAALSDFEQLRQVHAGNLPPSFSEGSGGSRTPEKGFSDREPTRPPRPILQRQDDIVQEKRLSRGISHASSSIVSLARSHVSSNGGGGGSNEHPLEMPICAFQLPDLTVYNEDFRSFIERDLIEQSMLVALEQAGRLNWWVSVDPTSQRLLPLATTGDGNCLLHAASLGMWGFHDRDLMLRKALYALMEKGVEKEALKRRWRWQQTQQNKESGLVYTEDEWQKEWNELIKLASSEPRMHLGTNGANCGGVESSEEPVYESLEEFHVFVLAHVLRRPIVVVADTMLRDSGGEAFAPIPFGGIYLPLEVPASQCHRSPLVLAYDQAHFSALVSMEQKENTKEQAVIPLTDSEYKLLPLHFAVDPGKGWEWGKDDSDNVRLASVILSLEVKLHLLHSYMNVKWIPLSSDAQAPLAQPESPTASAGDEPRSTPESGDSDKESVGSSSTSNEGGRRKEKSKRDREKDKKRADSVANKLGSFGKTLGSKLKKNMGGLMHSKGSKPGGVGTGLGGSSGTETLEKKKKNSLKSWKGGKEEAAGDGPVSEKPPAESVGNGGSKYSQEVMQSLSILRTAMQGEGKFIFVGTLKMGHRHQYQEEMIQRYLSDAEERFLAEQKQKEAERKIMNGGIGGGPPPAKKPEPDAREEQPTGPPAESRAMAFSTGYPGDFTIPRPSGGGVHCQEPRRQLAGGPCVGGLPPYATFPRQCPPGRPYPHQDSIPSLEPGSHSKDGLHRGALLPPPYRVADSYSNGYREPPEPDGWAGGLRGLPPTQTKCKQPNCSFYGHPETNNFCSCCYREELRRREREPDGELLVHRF
Method: Cells were harvested and lysed in EBC buffer (50 mM Tris pH 7.5, 120 mM NaCl, 0.5% NP-40) supplemented with protease inhibitor cocktail (EDTA-free, mini-tablet) (Bimake) and phosphatase inhibitor cocktail (Bimake) by rotating in the cold room for 10 min followed by high-speed centrifugation at 4° C. The protein concentrations in supernatants of whole cell lysates were measured by NanoDrop OneC using the Bio-Rad Bradford protein assay reagent. Equal amounts of whole cell lysates were resolved on SDS-PAGE and immunoblotted with indicated antibodies. For immunoprecipitation analysis, 1 mg of total cell lysate was incubated with the indicated beads for 3-4 hr at 4° C. The recovered immuno-complexes were washed thoroughly three times with NETN buffer (20 mM Tris, pH 8.0, 100 mM NaCl, 1 mM EDTA and 0.5% NP-40) before being resuspended in SDS sample buffer and resolved on SDS-PAGE and immunoblotted with indicated antibodies.

A549 cells = experiment: Colony formation / growth of A549 cells; assay type: cell-based; details: treated once for 10 days
Method: 500 cells from OTUD7B depleted A549 cells were seeded into each well of 6-well plates and cultured in the 37° C. incubator with 5% CO2 for 10-15 days until formation of visible colonies. Triplicates were performed. To test the effect of a given inhibitor on colony formation ability, 800 cells from A549, H520 and H1299 cell lines were seeded into each well of 6-well plates, respectively. Each inhibitor was added at indicated concentration the next day. Colonies were counted after 10 days of treatment. The colony staining method was as described. […] Colony numbers were counted manually. […]
2,000 cells from indicated NSLC cell lines were seeded into each well of 96-well plates. Cell viability was measured 3 days post-treatment using MTT assays following manufacturer's instruction. […] Inhibitor was added the next day at indicated concentration and cell viability was measured after 3-day treatment. For cell proliferation assays in THP1, K562 and HL60 cell lines, 1×10^6 cells from each indicated cell line were seeded in 12.5 cm2 cell culture flask and cells were counted by hemocytometer under microscope at indicated time to monitor cell proliferation. […] Inhibitor was added the next day at indicated concentrations and cell number was counted after 3 days treatment. […]

OTUD7A = target: T2, OTUD7A (Homo sapiens, UniProt Q8TE49); experiment: Ubiquitin-AMC assay, OTUD7A; assay type: biochemical; details: 50 μM 7Bi, 10 μM OTUD7A, 2 uM ubiquitin-AMC
T2 construct: OTUD7A (residues 1-462); GST (N, cleaved yes); made in house; host or cells: E. coli BL21-Codon Plus (DE3)-RIL
T2 sequence (Q8TE49 1-462): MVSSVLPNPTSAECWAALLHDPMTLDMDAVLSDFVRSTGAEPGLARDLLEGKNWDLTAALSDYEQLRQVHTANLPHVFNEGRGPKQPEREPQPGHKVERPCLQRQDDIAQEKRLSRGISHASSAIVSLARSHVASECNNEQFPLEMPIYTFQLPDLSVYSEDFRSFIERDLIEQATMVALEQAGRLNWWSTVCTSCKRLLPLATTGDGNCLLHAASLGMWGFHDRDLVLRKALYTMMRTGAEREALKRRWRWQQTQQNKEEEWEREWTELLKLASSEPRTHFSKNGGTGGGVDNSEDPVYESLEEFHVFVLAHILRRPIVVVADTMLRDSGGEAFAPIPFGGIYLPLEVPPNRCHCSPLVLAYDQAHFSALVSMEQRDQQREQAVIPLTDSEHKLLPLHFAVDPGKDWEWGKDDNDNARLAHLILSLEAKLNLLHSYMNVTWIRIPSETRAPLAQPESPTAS
Method: 50 μM 7Bi were incubated with 300 nM OTUD7B (residues 56-446), 10 μM OTUD7A (residues 1-462), 200 nM USP21 (residues 196-565), or 500 nM USP9X (residues 1551-1970) in reaction buffer (20 mM HEPES pH=8.0, 200 mM NaCl, 0.25 mg/mL BSA and 0.005% Tween-20) for 5 min at room temperature. Then, 2 uM ubiquitin-AMC was added to start the reaction. The fluorescence emission data was collected at an excitation wavelength of 355 nm and emission wavelength of 460 nm every 3 min. Reactions were completed three times to generate the error bars.

Cc1cc(NC(=O)c2cnn(C)c2C(=O)Nc2cc(C)nn2C2CCCC2)n(C2CCCC2)n1 [7Bi]
OTUD7B binding to GβL (OTUD7B binding to GβL): nor significantly affected OTUD7B binding to GβL
cell growth (A549 cells): reduced growth
inhibition of hydrolysis of ubiquitin-AMC by OTUD7A (OTUD7A): but not its close family member OTUD7A
